Entries after “also recorded” stand apart in the source; their conditions may differ.
Tests used:
Format in all cases: in vivo, rat
Sprague-Dawley rats [1] = test: Intravenous infusion of humanin or analogs during hyperinsulinemic clamp; details: IV 0.0375 mg/kg/hr, clamp
[2] = system: phospho Akt and ACC in muscle; test: Western blot of skeletal muscle insulin signaling after ICV infusion; details: muscle tissues from ICV-infused rats
Description: The indicated tissues were homogenized in 20 mM MOPS, 2 mM EGTA, 5 mM EDTA, 30 mM sodium fluoride, 40 mM beta-glycerophosphate, 10 mM sodium pyrophosphate, 2 mM orthovanadate, 0.5% NP-40 and complete protease inhibitor cocktail (Roche, Indianapolis, Ind., USA) and centrifuged at 12,000 g for 15 min and the supernatant was harvested while carefully avoiding the lipid layer on top. Protein concentration was measured with a BCA protein quantification kit (Pierce, Rockford, Ill., USA). Protein extracts were separated on 4-12% NuPAGE (Invitrogen, Carlsbad, Calif., USA) gels and were blotted onto Immobilon FL PVDF (Millipore, Billerica, Mass., USA). […] After three washes in TBS-T and a final wash in TBS the blots were scanned using the LI-COR Odyssey (LI-COR, Lincoln, Nebr., USA) and quantified using Odyssey 2.0 software based on direct fluorescence measurement.
For acute signaling studies, rats were injected ICV with either aCSF, 20 μg of HN or F6A (dissolved in aCSF) over 5 min, and sacrificed 30 min later. […] Samples were also obtained from these tissues at the end of the clamp and western blot analysis was performed as described previously (Muzumdar et al. 2003) The blots were scanned using the LI-COR Odyssey (LI-COR, Lincoln, Nebr., USA) and quantified using Odyssey 2.0 software based on direct fluorescence measurement. […]

Sprague-Dawley rats [3] = test: ICV infusion of IGF-1, IGFBP-3 or NLS mutant with basal and hyperinsulinemic clamp
Text: Young (3 mo old, n=6 in each group), male Sprague-Dawley rats (Charles River Laboratories, Wilmington, Mass.) were used for this study. Rats were housed in individual cages and were subjected to a standard light (6:00 AM to 6:00 PM)—dark (6:00 PM to 6:00 AM) cycle. All rats were fed ad libitum using regular rat chow that consisted of 64% carbohydrate, 30% protein, and 6% fat with a physiological fuel value of 3.3-kcal/g chow. In the rats that received ICV infusions, 2 to 4 weeks before the in vivo study, the rats were anesthetized by inhalation of isoflurane and a cannula was placed ICV in the third ventricle for infusions of IGF-1, IGFBP-3 or IGFBP-3 mutant or artificial cerebrospinal fluid (aCSF), as previously described (Muzumdar et al., 2003) (FIG. 1). Briefly, a 26-gauge stainless steel guide cannula (Plastics One, Roanoke, Va.) was chronically implanted into the third ventricles using the following coordinates from bregma: anterior-posterior; +0.2 mm dorsal-ventral; −9.0 mm medial-lateral; 0.0 directly on the mid-sagittal suture, followed by a 28-gauge dummy cannula, inserted to prevent clogging of the guide cannula. The implant was secured to the skull with Caulk Grip dental cement, and the skin was closed over the implant using wound clips. The recovery of rats from the surgical stress was monitored with daily weight, food intake, and movement.
Upon recovery of body weight, usually a week, indwelling catheters were placed in the right internal jugular vein and in the left carotid artery (Muzumdar et al., 2003). The venous catheter was extended to the level of the right atrium, and the arterial catheter was advanced to the level of the aortic arch. Recovery was continued until body weight was within 3% of the pre-operative weight (˜4-6 days). In the rats that received peripheral IGFBP-3, only the vascular catheters were placed.
Studies were performed in unrestrained rats using the insulin clamp technique, in combination with high performance liquid chromatography-purified [3-^3H]glucose and [U-^14C]lactate infusions, as described previously (Liu et al., 1998). Food was removed for ˜5 h before the in vivo protocol. All studies lasted 360 min and included a 120-min equilibration period, a 120-min basal period for assessment of the basal glucose turnover, and a 120-min hyperinsulinemic clamp period. All rats received ICV infusions (bolus followed by continuous ICV infusions of IGF-1, IGFBP-3, IGFBP-3 mutant or aCSF, depending on the group) over the entire 6 hours of the study. At the beginning of the basal period and 120 min before starting the glucose/insulin infusions, a primed-continuous infusion of high performance liquid chromatography-purified [3-^3H]glucose (NEN Life Science Products, Boston, Mass.; 20 μCi of bolus, 0.2 μCi/min) was initiated and maintained throughout the remaining 4 h of the study. In the final 2 hours of the study, the rats were subjected to hyperinsulinemic clamp. The protocol followed during the insulin clamp study was similar to that previously described (Liu et al., 1998). Briefly, a primed-continuous infusion of regular insulin (3 milliunits/kg·min) was administered, and a variable infusion of a 25% glucose solution was started and periodically adjusted to clamp the plasma glucose concentration at 7-8 mM. To prevent endogenous insulin secretion and in order to control for possible effects of ICV infusions on the endocrine pancreas, somatostatin (1.5 μg/kg·min) was also infused in all the groups. [U-^14C]Lactate (5 μCi of bolus/0.25 μCi/min) was infused during the last 10 min of the study.
A bolus of hIGF-1 (0.3 mcg, a gift from Tercica, South San Francisco) was followed by a continuous infusion over 6 hours (total dose of 1 mcg, 0.06 μg/kg/hr).
A bolus of non glycosylated hIGFBP-3 (1.25 μg, generously provided by Celtrix, Mountain View Calif.) was followed by a continuous infusion over 6 hours (total dose of 5.25 mcg, 0.26 μg/kg/hr). […]

[4] = ICV IGFBP-3, insulin clamp 3 mU/kg/min
[5] = ICV IGFBP-3 or NLS mutant over 6 h, basal period
[6] = ICV IGFBP-3 or NLS mutant over 6 h, hyperinsulinemic clamp
[7] = ICV infusion, hyperinsulinemic clamp

CC[C@H](C)[C@H](NC(=O)[C@H](CCC(=O)O)NC(=O)[C@H](CO)NC(=O)[C@@H](NC(=O)[C@H](CC(C)C)NC(=O)[C@H](CC(C)C)NC(=O)[C@H](CC(C)C)NC(=O)[C@H](CC(C)C)NC(=O)[C@H](CS)NC(=O)[C@H](CO)NC(=O)[C@H](Cc1ccccc1)NC(=O)CNC(=O)[C@H](CCCNC(=N)N)NC(=O)[C@@H]1CCCN1C(=O)[C@H](C)NC(=O)[C@@H](N)CCSC)[C@@H](C)O)C(=O)N[C@@H](CC(=O)O)C(=O)N[C@@H](CC(C)C)C(=O)N1CCC[C@H]1C(=O)N[C@H](C(=O)N[C@@H](CCCCN)C(=O)N[C@@H](CCCNC(=N)N)C(=O)N[C@@H](CCCNC(=N)N)C(=O)N[C@@H](C)C(=O)O)C(C)C [Humanin, maprgfscll lltseidlpv krra]
peripheral insulin action (Sprague-Dawley rats [1]): Neither HN, nor the non-BP3-binding F6AHN (at doses of 0.0375 mg/kg/hr) altered peripheral insulin action
pAKT and acetyl CoA carboxylase in muscle compared to aCSF [2]: significantly increased

IGFBP-3: non glycosylated hIGFBP-3 (IGF binding protein-3), provided by Celtrix
decrease in peripheral glucose uptake (Sprague-Dawley rats [3]; [4]): ~30%
increase in hepatic glucose production compared to controls (Sprague-Dawley rats [3]; [4]): 45%
Glycogen synthesis, Basal (Sprague-Dawley rats [3]; [5]): 4.62 ± 0.69
Glycolysis, Basal (Sprague-Dawley rats [3]; [5]): 9.33 ± 1.27 mg/kg/min
HGP, Basal (Sprague-Dawley rats [3]; [5]): 13.95 ± 0.99 mg/kg/min
Glycogen synthesis, Clamp (Sprague-Dawley rats [3]; [6]): 4.46 ± 0.68
Glycolysis, Clamp (Sprague-Dawley rats [3]; [6]): 9.95 ± 1.05 mg/kg/min
HGP, Clamp (Sprague-Dawley rats [3]; [6]): 7.08 ± 0.59 mg/kg/min
Rd, Clamp (Sprague-Dawley rats [3]; [6]): 14.01 ± 0.82 mg/kg/min
GIR, Clamp (Sprague-Dawley rats [3]; ICV IGFBP-3 or NLS mutant over 6 h, hyperinsulinemic clamp 3 mU/kg/min): 6.95 ± 1.11 mg/kg/min
FFA (Sprague-Dawley rats [3]; ICV IGFBP-3 or NLS mutant over 6 h, hyperinsulinemic clamp, last 60 min): 0.72 ± 0.06 mEq/l
h-IGFBP-3 (Sprague-Dawley rats [3]; ICV IGFBP-3 or NLS mutant over 6 h, peripheral plasma): 0 ng/mL
gluconeogenesis (Sprague-Dawley rats [3]; [7]): 0.37 ± 0.1 mg/kg/min
glycogenolysis / hepatic glucose fluxes compared to controls (Sprague-Dawley rats [3]; [7]): significant increase
insulin induced suppression of FFA compared to controls (Sprague-Dawley rats [3]; [7]): significantly reduced
whole body glucose disposal / peripheral glucose uptake (Rd) compared to controls (Sprague-Dawley rats [3]; ICV infusion, hyperinsulinemic clamp, final 60 min): significantly decreased
infused human peptide in the rat periphery (Sprague-Dawley rats [3]; after ICV infusion): No hIGFBP-3 was detected; also recorded: No human IGF-1, hIGFBP-3 or NLS-IGFBP-3 was identified
